Patent US12295938B2, “Composition for treating castration-resistant prostate cancer, comprising quassinoids” (SAMSUNG LIFE PUBLIC WELFARE FOUNDATION, priority 2019, dated 2025)
Where a name gives a salt, the structure may show the parent alone.

Tests used:
[1] = tested on: AR-V7 transcriptional activity; assay: MMTV-LUC luciferase reporter assay in 22RV1 cells, DHT− (screening and IC50); type: cell-based; conditions: 22RV1 cells, no DHT, control = 100
Experimental: (§1) A library of antimalarial agents was screened using a luciferase reporter assay to measure changes in AR/AR-V7 transcriptional activity.
(§2) Screening was made primarily with 10 μM of each drug.

[2] = tested on: AR transcriptional activity; assay: MMTV-LUC luciferase reporter assay in 22RV1 cells, DHT+ (screening and IC50); type: cell-based; conditions: with DHT, control = 100
Experimental: as §1, §2

Row | Molecule | activity at 10 µM ([1]; Homo sapiens, 10 uM) [%] | activity at 10 µM ([2]; Homo sapiens, 10 uM) [%] | MMTV-LUC activity (%) DHT− ([1]; 10 uM) [%] | MMTV-LUC activity (%) DHT+ ([2]; 10 uM) [%] | also measured
1 | CC(=O)Oc1cccc2c1C(=O)c1c(OC(C)=O)cc(C(=O)O)cc1C2=O [1,8-Diacetoxy-3-carboxyanthraquinone] | 101 ± 8.7 | 98.5 ± 2.1 |  |  | 
2 | O=C1c2cccc(O)c2C(=O)c2c(O)cccc21 [1,8-Dihydroxyanthraquinone] | 83.8 ± 2.9 |  |  |  | 
3 | CC1CCCC=CC(=O)c2c(O)cc(O)cc2CC(=O)O1 (stereo not drawn) [10,11-Dehydrocurvularin] |  |  | 16.3 ± 2.5 | 5.5 ± 0.6 | MMTV-LUC activity (%) DHT− ([1]; 1 uM): 383.1 ± 24.6%; MMTV-LUC activity (%) DHT+ ([2]; 1 uM): 206.9 ± 15.0%
4 | CC[C@](C)(O)C(=O)O[C@H]1C(=O)O[C@@H]2C[C@H]3C(C)=CC(=O)[C@@H](O)[C@]3(C)[C@H]3[C@@]4(O)OC[C@]32[C@@H]1[C@@H](C)[C@H]4O [(+)-Glaucarubinone] |  |  | 107.6 ± 26.5 | 117.7 ± 3.5 | 
5 | CC(=O)O[C@H](CC=C(C)C)C1=CC(=O)c2c(O)ccc(O)c2C1=O [Acetylshikonin] | 38.6 ± 3.2 | 17.7 ± 1.5 |  |  | activity at 1 µM ([1]; Homo sapiens, 1 uM): 103 ± 7.7%; activity at 1 µM ([2]; Homo sapiens, 1 uM): 113 ± 16.6%
6 | O=C1c2c(O)cccc2C([C@@H]2O[C@H](CO)[C@@H](O)[C@H](O)[C@H]2O)c2cc(CO)cc(O)c21 (stereo partly drawn) [Aloin A] |  |  | 108.3 ± 5.0 |  | 
7 | CCN(CC)Cc1cc(Nc2ccnc3cc(Cl)ccc23)ccc1O [Amodiaquine dihydrochloride dihydrate] | 91.6 ± 2.9 | 102 ± 4.3 |  |  | 
8 | C=C1CC[C@@H]2[C@](C)(CO)[C@H](O)CC[C@@]2(C)[C@@H]1C/C=C1/C(=O)OC[C@H]1O [Andrographolide] | 157 ± 4.3 | 196 ± 5 |  |  | 
9 | CO[C@H]1O[C@@H]2O[C@@]3(C)CC[C@H]4[C@H](C)CC[C@@H]([C@H]1C)[C@@]24OO3 [Artemether] | 97.5 ± 19.5 | 138 ± 8.8 |  |  | 
10 | C[C@@H]1CC[C@H]2[C@@H](C)C(=O)O[C@@H]3O[C@@]4(C)CC[C@@H]1[C@]32OO4 [Artemisinin] | 107 ± 4.3 | 156 ± 17.6 |  |  | 
11 | C[C@H]1[C@H](OC(=O)CCC(=O)O)O[C@@H]2O[C@@]3(C)CC[C@H]4[C@H](C)CC[C@@H]1[C@@]24OO3 [Artesunate] | 107.6 ± 0.8 |  |  |  | 
12 | COc1c(O)cc2c(c1O)C(=O)c1c(cc(C)c(O)c1OC)C2=O [Aurantio-obtusin] | 119 ± 27.4 | 124 ± 2.2 |  |  | 
13 | COC(=O)[C@]12OC[C@]34[C@H]([C@@H](O)[C@@H]1O)[C@@]1(C)CC(=O)C(O)=C(C)[C@@H]1C[C@H]3OC(=O)[C@H](OC(=O)/C=C(\C)C(C)(C)OC(C)=O)[C@@H]24 [Bruceantinol] | 81.2 ± 62.1 | 44.5 ± 2.1 |  |  | activity at 1 µM ([1]; Homo sapiens, 1 uM): 73.5 ± 11.9%; activity at 1 µM ([2]; Homo sapiens, 1 uM): 119 ± 21.8%
14 | COC(=O)[C@]12OC[C@]34[C@H]([C@@H](O)[C@@H]1O)[C@@]1(C)C=C(O[C@@H]5O[C@H](CO)[C@@H](O)[C@H](O)[C@H]5O)C(=O)[C@@H](C)[C@@H]1C[C@H]3OC(=O)[C@H](OC(=O)/C=C(\C)C(C)C)[C@@H]24 [Bruceantinoside A] |  |  | 6.5 ± 0.9 | 3.8 ± 1.1 | MMTV-LUC activity (%) DHT− ([1]; 0.1 uM): 44.9 ± 5.5%; MMTV-LUC activity (%) DHT− ([1]; 1 uM): 11.5 ± 5.6%; MMTV-LUC activity (%) DHT+ ([2]; 0.1 uM): 61.0 ± 7.3%; MMTV-LUC activity (%) DHT+ ([2]; 1 uM): 8.0 ± 0.2%
15 | CC1=CC(=O)[C@@H](O)[C@]2(C)[C@H]3[C@@H](O)[C@H](O)[C@]4(C)OC[C@@]35[C@@H](C[C@@H]12)OC(=O)[C@H](O)[C@]54O [Bruceine D] |  |  | 7.9 ± 1.3 | 1.1 ± 0.1 | MMTV-LUC activity (%) DHT− ([1]; 0.1 uM): 46.0 ± 6.4%; MMTV-LUC activity (%) DHT− ([1]; 1 uM): 7.0 ± 1.2%; MMTV-LUC activity (%) DHT+ ([2]; 0.1 uM): 32.6 ± 6.2%; MMTV-LUC activity (%) DHT+ ([2]; 1 uM): 2.0 ± 0.2%
16 | C[C@H]1COC2=C1C(=O)C(=O)c1c2ccc2c1CCCC2(C)C [Cryptotanshinone] | 70.3 ± 3.2 | 62.7 ± 15.3 |  |  | 
17 | CC1CCCCCC(=O)c2c(O)cc(O)cc2CC(=O)O1 (stereo not drawn) [Curvularin] | 76.8 ± 3 | 91.6 ± 9.4 |  |  | 
18 | COC(=O)[C@]12OC[C@@]34[C@@H](CC5=C(C)C(=O)C(O)=C[C@]5(C)[C@H]3[C@@H](O)[C@@H]1O)OC(=O)[C@H](OC(=O)CC(C)C)[C@@H]24 [Dehydrobruceine A] |  |  | 133.8 ± 14.5 | 164.2 ± 16.0 | 
19 | C[C@H]1[C@@H](O)O[C@@H]2O[C@@]3(C)CC[C@H]4[C@H](C)CC[C@@H]1[C@@]24OO3 [Dihydroartemisinin] | 115 ± 10.1 | 138 ± 7 |  |  | 
20 | CNC(=O)c1ccc(N2C(=S)N(c3ccc(C#N)c(C(F)(F)F)c3)C(=O)C2(C)C)cc1F [Enzalutamide] | 79.4 ± 34.6 |  |  |  | activity at 1 µM ([1]; Homo sapiens, 1 uM): 87.4 ± 11.3%
21 | C=C1[C@@H](O)[C@]2(O)OC[C@]34[C@H]2[C@@]2(C)[C@H](O)C(=O)C=C(C)[C@@H]2C[C@H]3OC(=O)[C@H](O)[C@@]14O [Eurycomanone] | 17.7 ± 2.7 | 6.7 ± 0.5 |  |  | activity at 0.1 µM ([1]; Homo sapiens, 0.1 uM): 128 ± 12%; activity at 1 µM ([1]; Homo sapiens, 1 uM): 59.1 ± 7.6%; activity at 0.1 µM ([2]; Homo sapiens, 0.1 uM): 108 ± 4.7%; activity at 1 µM ([2]; Homo sapiens, 1 uM): 51.3 ± 4.6%

Row | Molecule | activity at 10 µM ([1]; Homo sapiens, 10 uM) [%] | activity at 10 µM ([2]; Homo sapiens, 10 uM) [%] | MMTV-LUC activity (%) DHT− ([1]; 10 uM) [%] | MMTV-LUC activity (%) DHT+ ([2]; 10 uM) [%] | also measured
22 | C[C@H](CC(=O)C[C@@H](C)[C@H]1C[C@H](O)[C@@]2(C)C3=C(C(=O)C[C@]12C)[C@@]1(C)CCC(=O)C(C)(C)[C@@H]1C[C@@H]3O)C(=O)O [Ganoderic acid A] |  |  | 140.0 ± 3.8 | 148.9 ± 2.8 | 
23 | CCN(CCO)CCCC(C)Nc1ccnc2cc(Cl)ccc12 (stereo not drawn) [Hydroxychloroquinesulfate] | 92.3 ± 2 |  |  |  | 
24 | C=CC(C)(C)c1cc(/C=C/C(=O)c2ccc(O)cc2)c(OC)cc1O [Licochalcone A] |  |  | 202.7 ± 7.1 | 235.6 ± 0.2 | 
25 | CCCCN(CCCC)CC(O)c1cc(Cl)cc2c1-c1ccc(Cl)cc1/C2=C/c1ccc(Cl)cc1 (stereo not drawn) [Lumefantrine] | 138 ± 9.5 |  |  |  | 
26 | C=CCc1ccc(O)c(-c2cc(CC=C)ccc2O)c1 [Magnolol] | 130 ± 12 | 152 ± 8.6 |  |  | 
27 | COC(=O)c1c2c(c3ccccc3c1O)OC(C)(C)C=C2 [Mollugin] | 94.7 ± 9.5 | 112 ± 11.1 |  |  | 
28 | O=C(Nc1ccc([N+](=O)[O-])cc1Cl)c1cc(Cl)ccc1O [Niclosamide] | 9.4 ± 0.6 |  |  |  | activity at 1 µM ([1]; Homo sapiens, 1 uM): 119 ± 10.8%
29 | O=C(CCc1ccc(O)cc1)c1c(O)cc(O)cc1O[C@@H]1O[C@H](CO)[C@@H](O)[C@H](O)[C@H]1O [Phlorizin] | 154 ± 6.6 | 184 ± 12.6 |  |  | 
30 | CC1=CC(=O)c2c(O)cccc2C1=O [Plumbagin] | 26 ± 7.6 | 7.1 ± 0.1 |  |  | activity at 1 µM ([1]; Homo sapiens, 1 uM): 215 ± 16.1%; activity at 1 µM ([2]; Homo sapiens, 1 uM): 143 ± 27.5%
31 | CCc1nc(N)nc(N)c1-c1ccc(Cl)cc1 [Pyrimethamine] | 130.5 ± 0.2 |  |  |  | 
32 | COC1=C[C@@H](C)[C@@H]2C[C@H]3OC(=O)C[C@H]4C(C)=C(OC)C(=O)[C@H]([C@@]2(C)C1=O)[C@@]34C [Quassin] | 110 ± 9 | 120 ± 5.6 |  |  | 
33 | O=C(O)c1cc(O)c2c(c1)C(=O)c1cccc(O)c1C2=O [Rhein] | 83 ± 9.2 |  |  |  | 
34 | O=C(O)c1cc(O)c2c(c1)[C@H]([C@H]1c3cc(C(=O)O)cc(O)c3C(=O)c3c(O[C@@H]4O[C@H](CO)[C@@H](O)[C@H](O)[C@H]4O)cccc31)c1cccc(O[C@@H]3O[C@H](CO)[C@@H](O)[C@H](O)[C@H]3O)c1C2=O [Sennoside A] |  |  | 105.5 ± 4.4 |  | 
35 | COc1ncnc(NS(=O)(=O)c2ccc(N)cc2)c1OC [Sulfadoxine] | 116 ± 4.4 |  |  |  | 
36 | CC1=CC(=O)[C@@H](O)[C@]2(C)[C@H]3[C@@H](O)[C@H](O)[C@]4(CO)OC[C@@]35[C@@H](C[C@@H]12)OC(=O)[C@H](O)[C@]54O [Yadanziolide A] |  |  | 8.0 ± 0.6 | 4.1 ± 0.2 | MMTV-LUC activity (%) DHT− ([1]; 1 uM): 54.1 ± 13.0%; MMTV-LUC activity (%) DHT+ ([2]; 1 uM): 58.3 ± 10.9%
37 | CC1=CC(=O)[C@@H](O)[C@@]2(C)[C@H]1[C@@H](O)[C@H]1OC(=O)[C@H](O)[C@]3(O)[C@]14CO[C@]3(CO)[C@@H](O)[C@H](O)[C@H]24 [Yadanziolide B] |  |  | 8.2 ± 1.0 | 4.0 ± 0.5 | MMTV-LUC activity (%) DHT− ([1]; 0.1 uM): 23.1 ± 5.2%; MMTV-LUC activity (%) DHT− ([1]; 1 uM): 7.2 ± 0.8%; MMTV-LUC activity (%) DHT+ ([2]; 0.1 uM): 32.8 ± 9.0%; MMTV-LUC activity (%) DHT+ ([2]; 1 uM): 4.2 ± 0.4%
38 | COC(=O)[C@]12OC[C@]34[C@H]([C@@H](O)[C@@H]1O)[C@@]1(C)C=C(O[C@@H]5O[C@H](CO)[C@@H](O)[C@H](O)[C@H]5O)C(=O)[C@@H](C)[C@@H]1C[C@H]3OC(=O)[C@H](OC(=O)/C=C(\C)C(C)(C)O)[C@@H]24 [Yadanzioside C] |  |  | 110.4 ± 11.6 | 5.8 ± 0.7 | MMTV-LUC activity (%) DHT− ([1]; 1 uM): 118.9 ± 18.1%; MMTV-LUC activity (%) DHT+ ([2]; 1 uM): 55.6 ± 0.7%
39 | COC(=O)[C@]12OC[C@]34[C@H]([C@@H](O)[C@@H]1O)[C@@]1(C)C=C(O[C@@H]5O[C@H](CO)[C@@H](O)[C@H](O)[C@H]5O)C(=O)[C@@H](C)[C@@H]1C[C@H]3OC(=O)[C@H](OC(C)=O)[C@@H]24 [Yadanzioside F] |  |  | 133.6 ± 21.7 | 139.5 ± 11.0 | 
40 | COC(=O)[C@]12OC[C@]34[C@H]([C@@H](O)[C@@H]1O)[C@@]1(C)CC(=O)C(O[C@@H]5O[C@H](CO)[C@@H](O)[C@H](O)[C@H]5O)=C(C)[C@@H]1C[C@H]3OC(=O)[C@H](OC(C)=O)[C@@H]24 [Yadanzioside I] |  |  | 123.2 ± 10.4 | 136.0 ± 7.1 | 
41 | CC(C)=CC[C@H](OC(=O)C=C(C)C)C1=CC(=O)c2c(O)ccc(O)c2C1=O [β, β-Dimethylacrylalkannin] |  |  | 33.3 ± 3.2 | 19.9 ± 3.5 | MMTV-LUC activity (%) DHT− ([1]; 1 uM): 100.2 ± 11.4%; MMTV-LUC activity (%) DHT+ ([2]; 1 uM): 107.9 ± 7.0%
42 | Bruceanic acid C |  |  | 68.5 ± 6.3 | 85.8 ± 14.2 | 
